Measurements published in patent publication US8906929B2, “Inhibitors of human immunodeficiency virus replication” (priority 2012, dated 2014).

System: recombinant NL-Rluc virus
Experiment: Inhibition of HIV replication (NL-RLuc virus in MT-2 cells, luciferase readout)
Type: cell-based
Settings: Human immunodeficiency virus 1, MT2, 120 h, 5 days of incubation, 10% FBS

**Q.** `Cc1cc2c(cc1Cl)O[C@@H](C)CCCCOC1(C)CCN(CC1)c1c([C@H](OC(C)(C)C)C(=O)O)c(C)nc3cc(nn13)-c1cccc-2c1` [Example 67, (2S)-2-(tert-butoxy)-2-[(22S)-18-chloro-4,17,22,28-tetramethyl-21,27-dioxa-1,5,7,8-tetraazahexacyclo[26.2.2.1^6,^9.1^10,^14.0^2,^7.0^15,^20]tetratriaconta-2,4,6(34),8,10(33), 11, 13, 15 (20),16,18-decaen-3-yl]acetic acid] was tested. Which EC50 did it give?
**A.** Its EC50 is 109 nM.

**Q.** `Cc1ccc2c(c1F)-c1cccc(c1)-c1cc3nc(C)c([C@H](OC(C)(C)C)C(=O)O)c(n3n1)N1CCC(C)(CC1)OC/C=C/C[C@H](C)O2` [Example 68, (2S)-2-(tert-Butoxy)-2-[(22S,^24E)-16-fluoro-4,17,22,28-tetramethyl-21,27-dioxa-1,5,7,8-tetraazahexacyclo[26.2.2.1^6,^9.1^10,^14. 0^2,^7.0^15,^20]tetratriaconta-2,4,6(34),8,10(33), 11, 13, 15 (20), 16,18,24-undecaen-3-yl]acetic acid] was tested. Which EC50 did it give?
**A.** Its EC50 is 9 nM.

**Q.** With `Cc1ccc2c(c1F)-c1cccc(c1)-c1cc3nc(C)c([C@H](OC(C)(C)C)C(=O)O)c(n3n1)N1CCC(C)(CC1)OC/C=C\C[C@H](C)O2` [Example 69, (2S)-2-(tert-Butoxy)-2-[(22S,24Z)-16-fluoro-4,17,22,28-tetramethyl-21,27-dioxa-1,5,7,8-tetraazahexacyclo[26.2.2.1^6,^9.1^10,^14.0^2,^7.0^15,^20]tetratriaconta-2,4,6(34),8,10(33), 11, 13, 15 (20),16,18,24-undecaen-3-yl]acetic acid] as the compound, how does the EC50 read?
**A.** Its EC50 is 21 nM.

**Q.** With `Cc1ccc2c(c1F)-c1cccc(c1)-c1cc3nc(C)c([C@H](OC(C)(C)C)C(=O)O)c(n3n1)N1CCC(C)(CC1)OCCCC[C@H](C)O2` [Example 70, (2S)-2-(tert-Butoxy)-2-[(22S)-16-fluoro-4,17,22,28-tetramethyl-21,27-dioxa-1,5,7,8-tetraazahexacyclo[26.2.2.1^6,^9.1^10,^14.0^2,^7.0^15,^20]tetratriaconta-2,4, 6(34), 8, 10(33), 11, 13, 15(20),16,18-decaen-3-yl]acetic acid] as the compound, how does the EC50 read?
**A.** The EC50 was 19 nM.

**Q.** Which EC50 does the source give for `Cc1nc2cc3nn2c(c1[C@H](OC(C)(C)C)C(=O)O)N1CCC(C)(CC1)OCC=CC[C@H](C)Oc1ccc(C(N)=O)cc1-c1cccc-3c1` [Example 72, (2S)-2-(tert-Butoxy)-2-[(22S)-17-carbamoyl-4,22,27-trimethyl-21,26-dioxa-1,5,7,8-tetraazahexacyclo[25.2.2.1^6,^9.1^10,^14.0^2,^7.0^15,^20]tritriaconta-2,4, 6(33), 8, 10(32), 11, 13, 15(20),16,18,23-undecaen-3-yl]acetic acid] here?
**A.** The EC50 was 15 nM.

**Q.** How did the EC50 turn out when `Cc1nc2cc3nn2c(c1[C@H](OC(C)(C)C)C(=O)O)N1CCC(C)(CC1)OCCCC[C@H](C)Oc1ccc(C#N)cc1-c1cccc-3c1` [Example 73, (2S)-2-(tert-Butoxy)-2-[(22S)-17-cyano-4,22,28-trimethyl-21,27-dioxa-1,5,7,8-tetraazahexacyclo[26.2.2.1^6,^9.1^10,^14.0^2,^7.0^15,^20]tetratriaconta-2,4,6(34),8,10(33), 11, 13, 15(20),16,18-decaen-3-yl]acetic acid] was run?
**A.** The EC50 was 6 nM.

**Q.** How did the EC50 turn out when `Cc1ccc2c(c1)O[C@@H](C)CCCCOC1(C)CCN(CC1)c1c([C@H](OC(C)(C)C)C(=O)O)c(C)nc3cc(nn13)-c1cccc-2c1` [Example 74, (2S)-2-(tert-Butoxy)-2-[(22S)-4,18,22,28-tetramethyl-21,27-dioxa-1,5,7,8-tetraazahexacyclo[26.2.2.1^6,^9.1^10,^14.0^2,^7.0^15,^20]tetratriaconta-2,4,6(34),8,10(33),11,13,15(20),16,18-decaen-3-yl]acetic acid] was run?
**A.** Its EC50 is 36 nM.

**Q.** Which EC50 does the source give for `Cc1cc2c(cc1C)-c1cccc(c1)-c1cc3nc(C)c([C@H](OC(C)(C)C)C(=O)O)c(n3n1)N1CCC(C)(CC1)OCC=CC[C@H](C)O2` [Example 75, (2S)-2-(tert-Butoxy)-2-[(22S)-4,17,18,22,28-pentamethyl-21,27-dioxa-1,5,7,8-tetraazahexacyclo[26.2.2.1^6,^9.1^10,^14.0^2,^7.0^15,^20]tetratriaconta-2,4,6(34),8,10(33), 11, 13, 15 (20),16,18,24-undecaen-3-yl]acetic acid] here?
**A.** Its EC50 is 34 nM.

**Q.** `Cc1cc2c(cc1C)-c1cccc(c1)-c1cc3nc(C)c([C@H](OC(C)(C)C)C(=O)O)c(n3n1)N1CCC(C)(CC1)OCCCC[C@H](C)O2` [Example 76, (2S)-2-(tert-Butoxy)-2-[(22S)-4,17,18,22,28-pentamethyl-21,27-dioxa-1,5,7,8-tetraazahexacyclo[26.2.2.1^6,^9.1^10,^14.0^2,^7.0^15,^20]tetratriaconta-2,4,6(34),8,10(33),11,13,15(20),16,18-decaen-3-yl]acetic acid] was tested. Which EC50 did it give?
**A.** The EC50 was 29 nM.

**Q.** How did the EC50 turn out when `Cc1cccc2c1-c1cccc(c1)-c1cc3nc(C)c([C@H](OC(C)(C)C)C(=O)O)c(n3n1)N1CCC(C)(CC1)OCCCC[C@H](C)O2` [Example 77, (2S)-2-(tert-Butoxy)-2-[(22S)-4,16,22,28-tetramethyl-21,27-dioxa-1,5,7,8-tetraazahexacyclo[26.2.2.1^6,^9.1^10,^14.0^2,^7.0^15,^20]tetratriaconta-2,4,6(34),8,10(33), 11, 13, 15(20),16,18-decaen-3-yl]acetic acid] was run?
**A.** The EC50 was 21 nM.

**Q.** With `Cc1cc2c(cc1F)O[C@@H](C)CC=CCOC1(C)CCN(CC1)c1c([C@H](OC(C)(C)C)C(=O)O)c(C)nc3cc(nn13)-c1cccc-2c1` [Example 78, (2S)-2-(tert-Butoxy)-2-[(22S)-18-fluoro-4,17,22,28-tetramethyl-21,27-dioxa-1,5,7,8-tetraazahexacyclo[26.2.2.1^6,^9.1^10,^14.0^2,^7.0^15,^20]tetratriaconta-2,4,6(34),8,10(33),11,13, 15(20), 16,18,24-undecaen-3-yl]acetic acid] as the compound, how does the EC50 read?
**A.** The EC50 was 31 nM.

**Q.** With `Cc1cc2c(cc1F)O[C@@H](C)CCCCOC1(C)CCN(CC1)c1c([C@H](OC(C)(C)C)C(=O)O)c(C)nc3cc(nn13)-c1cccc-2c1` [Example 79, (2S)-2-(tert-Butoxy)-2-[(22S)-18-fluoro-4,17,22,28-tetramethyl-21,27-dioxa-1,5,7,8-tetraazahexacyclo[26.2.2.1^6,^9.1^10,^14.0^2,^7.0^15,^20]tetratriaconta-2,4,6(34),8,10(33),11,13,15(20),16,18-decaen-3-yl]acetic acid] as the compound, how does the EC50 read?
**A.** Its EC50 is 38 nM.

**Q.** For `Cc1nc2cc3nn2c(c1[C@H](OC(C)(C)C)C(=O)O)N1CCC(C)(CC1)OCCCC[C@H](C)Oc1ccc(F)cc1-c1cccc-3c1` [Example 81, (2S)-2-(tert-Butoxy)-2-[(22S)-17-fluoro-4,22,28-trimethyl-21,27-dioxa-1,5,7,8-tetraazahexacyclo[26.2.2.1^6,^9.1^10,^14.0^2,^7.0^15,^20]tetratriaconta-2,4,6(34),8,10(33),11,13, 15(20),16,18-decaen-3-yl]acetic acid], which EC50 is on record?
**A.** Its EC50 is 13 nM.

**Q.** Which EC50 does the source give for `Cc1nc2cc3nn2c(c1[C@H](OC(C)(C)C)C(=O)O)N1CCC(C)(CC1)OCCCC[C@H](C)Oc1ccc(Cl)cc1-c1cccc-3c1` [Example 82, (2S)-2-(tert-Butoxy)-2-[(22S)-17-chloro-4,22,28-trimethyl-21,27-dioxa-1,5,7,8-tetraazahexacyclo[26.2.2.1^6,^9.1^10,^14.0^2,^7.0^15,^20]tetratriaconta-2,4,6(34),8,10(33), 11, 13, 15 (20),16,18-decaen-3-yl]acetic acid] here?
**A.** Its EC50 is 20 nM.

**Q.** With `Cc1nc2cc3nn2c(c1[C@H](OC(C)(C)C)C(=O)O)N1CCC(C)(CC1)OCCCC[C@H](C)Oc1cc(F)ccc1-c1cccc-3c1` [Example 83, (2S)-2-(tert-Butoxy)-2-[(22S)-18-fluoro-4,22,28-trimethyl-21,27-dioxa-1,5,7,8-tetraazahexacyclo[26.2.2.1^6,^9.1^10,^14.0^2,^7.0^15,^20]tetratriaconta-2,4, 6(34), 8, 10(33), 11, 13, 15(20),16,18-decaen-3-yl]acetic acid] as the compound, how does the EC50 read?
**A.** The EC50 was 25 nM.

**Q.** How did the EC50 turn out when `Cc1nc2cc3nn2c(c1[C@H](OC(C)(C)C)C(=O)O)N1CCC(C)(CC1)OCCCC[C@H](C)Oc1cccc(F)c1-c1cccc-3c1` [Example 84, (2S)-2-(tert-Butoxy)-2-[(22S)-16-fluoro-4,22,28-trimethyl-21,27-dioxa-1,5,7,8-tetraazahexacyclo[26.2.2.1^6,^9.1^10,^14.0^2,^7.0^15,^20]tetratriaconta-2,4,6(34),8,10(33),11,13,15(20),16,18-decaen-3-yl]acetic acid] was run?
**A.** The EC50 was 12 nM.

**Q.** With `Cc1nc2cc3nn2c(c1[C@H](OC(C)(C)C)C(=O)O)N1CCC(C)(CC1)OCCCC[C@H](C)Oc1cccc(Cl)c1-c1cccc-3c1` [Example 85, (2S)-2-(tert-Butoxy)-2-[(22S)-16-chloro-4,22,28-trimethyl-21,27-dioxa-1,5,7,8-tetraazahexacyclo[26.2.2.1^6,^9.1^10,^14.0^2,^7.0^15,^20]tetratriaconta-2,4, 6(34), 8, 10(33), 11, 13, 15 (20),16,18-decaen-3-yl]acetic acid] as the compound, how does the EC50 read?
**A.** The EC50 was 21 nM.

**Q.** `Cc1nc2cc3nn2c(c1[C@H](OC(C)(C)C)C(=O)O)N1CCC(C)(CC1)OCCCC[C@H](C)Oc1cc(Cl)ccc1-c1cccc-3c1` [Example 86, (2S)-2-(tert-Butoxy)-2-[(22S)-18-chloro-4,22,28-trimethyl-21,27-dioxa-1,5,7,8-tetraazahexacyclo[26.2.2.1^6,^9. 1^10,^14.0^2,^7.0^15,^20]tetratriaconta-2,4,6(34),8,10(33), 11, 13, 15 (20),16,18-decaen-3-yl]acetic acid] was tested. Which EC50 did it give?
**A.** The EC50 was 52 nM.

**Q.** `Cc1nc2cc3nn2c(c1[C@H](OC(C)(C)C)C(=O)O)N1CCC(C)(CC1)OCCCC[C@H](C)Oc1cc(C#N)ccc1-c1cccc-3c1` [Example 87, (2S)-2-(tert-Butoxy)-2-[(22S)-18-cyano-4,22,28-trimethyl-21,27-dioxa-1,5,7,8-tetraazahexacyclo[26.2.2.1^6,^9.1^10,^14.0^2,^7.0^15,^20]tetratriaconta-2,4,6(34),8,10(33), 11, 13, 15 (20),16,18-decaen-3-yl]acetic acid] was tested. Which EC50 did it give?
**A.** The EC50 was 9 nM.

**Q.** With `Cc1cc2c(cc1Cl)-c1cccc(c1)-c1cc3nc(C)c([C@H](OC(C)(C)C)C(=O)O)c(n3n1)N1CCC(C)(CC1)OCCCC[C@H](C)O2` [Example 88, (2S)-2-(tert-Butoxy)-2-[(22S)-17-chloro-4,18,22,28-tetramethyl-21,27-dioxa-1,5,7,8-tetraazahexacyclo[26.2.2.1^6,^9.1^10,^14.0^2,^7.0^15,^20]tetratriaconta-2,4, 6(34), 8, 10(33), 11, 13, 15 (20),16,18-decaen-3-yl]acetic acid] as the compound, how does the EC50 read?
**A.** Its EC50 is 86 nM.
